Among the data in patent US11253525B2, “Inhibitors of indoleamine 2,3-dioxygenase and methods of their use” (BRISTOL-MYERS SQUIBB COMPANY, priority 2018, dated 2022) are IC50 values, retold here.

Each structure is given as a SMILES string. Where two headings read alike, the source gives them in different places. Some results are limits rather than exact numbers.

For this assay, the target named is T1, indoleamine 2,3-dioxygenase (IDO) (Homo sapiens, UniProt P14902).
T1 construct: replaced with media containing IFNγ (#285-IF/CF, R&D Systems) at a final concentration of 25 ng/mL; endogenous in cells; host or cells: HeLa (ATCC CCL-2), IFN-gamma stimulated
T1 sequence (P14902 whole entry): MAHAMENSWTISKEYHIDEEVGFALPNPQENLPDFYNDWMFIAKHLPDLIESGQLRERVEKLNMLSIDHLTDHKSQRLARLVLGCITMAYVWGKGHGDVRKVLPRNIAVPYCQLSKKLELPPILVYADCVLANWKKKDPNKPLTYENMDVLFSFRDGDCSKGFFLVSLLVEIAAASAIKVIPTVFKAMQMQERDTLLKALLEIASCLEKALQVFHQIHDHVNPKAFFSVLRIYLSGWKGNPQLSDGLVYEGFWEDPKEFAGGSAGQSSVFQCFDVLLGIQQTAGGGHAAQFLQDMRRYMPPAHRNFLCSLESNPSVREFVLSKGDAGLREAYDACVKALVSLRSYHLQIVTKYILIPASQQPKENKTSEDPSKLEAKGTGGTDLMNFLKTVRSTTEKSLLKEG
In words: HeLa cell-based indoleamine 2,3-dioxygenase (IDO) assay, kynurenine production. The conditions noted are these: HeLa cells, IFNγ 25 ng/mL, 48 hour incubation. The procedure:
Assessment of Inhibitor Activity in HeLa Cell-Based Indoleamine 23-Dioxygenase (IDO) Assay
Cells were maintained in a humidified incubator at 37° C. in 5% CO2.
IDO activity was assessed as a function of kynurenine production as follows: HeLa cells were seeded in a 96-well culture plate at a density of 5,000 cells/well and allowed to equilibrate overnight. […] A serial dilution of each test compound was added to the cells in a total volume of 200 μL of culture medium. After a further 48 hour incubation, 170 μL of supernatant was transferred from each well to a fresh 96-well plate. 12.1 μL of 6.1N trichloroacetic acid (#T0699, Sigma-Aldrich) was added to each well and mixed, followed by incubation at 65° C. for 20 minutes to hydrolyze N-formylkynurenine, the product of indoleamine 2,3-dioxygenase, to kynurenine. The reaction mixture was then centrifuged for 10 mins at 500×g to sediment the precipitate. 100 μL of the supernatant was transferred from each well to a fresh 96-well plate. […] Kynurenine concentrations were determined by measuring absorbance at 480 nm and calibrating against an L-kynurenine (#K8625, Sigma-Aldrich) standard curve using a SPECTRAMAX® M2e microplate reader (Molecular Devices). The percentage activity at each inhibitor concentration was determined and IC50 values assessed using nonlinear regression.

Setting [1] is: read-out: IDO Hela IC50 class (A < 50, B < 250, C < 2000).

For `CCOc1ncc(Nc2cc([C@H](CC)CC(=O)O)ccc2[C@@H](OC)C(F)(F)F)cn1` (single isomer, unassigned) [Example 91], the IC50 (usually the concentration needed to halve the response being measured) (read-out: IDO Hela IC50) was determined as 30 nM.

`CCO[C@H](c1ccc([C@H](CC)CC(=O)O)cc1NC(=O)Nc1ccc(C)cc1)C(F)(F)F` (single isomer, unassigned) [Example 7]: the IC50 (read-out: IDO Hela IC50) stood at 60 nM.

`CCO[C@H](c1ccc([C@@H](CC)CC(=O)O)cc1Nc1cnc(COC)nc1)C(F)(F)F` (single isomer, unassigned) [Example 27]: the IC50 (read-out: IDO Hela IC50) is 90 nM.

As for `CCO[C@H](c1ccc([C@@H](CC)CC(=O)O)cc1Nc1cnc(OC)cn1)C(F)(F)F` (single isomer, unassigned) [Example 25], the IC50 (read-out: IDO Hela IC50) worked out at 10 nM.

In the case of `CC[C@H](CC(=O)O)c1ccc([C@@H](OC)C(F)(F)F)c(Nc2cnc(C)nc2)c1` (relative stereo) [Example 90, (R)-3-(3-((2-methylpyrimidin-5-yl)amino)-4-((R)-2,2,2-trifluoro-1-methoxyethyl)phenyl)pentanoic acid], under “read-out: IDO Hela IC50”, the IC50 was 150 nM.

As for `CCO[C@H](c1ccc([C@@H](CC)CC(=O)O)cc1Nc1ccc(F)cc1)C(F)(F)F` (relative stereo) [Example 30, (S)-3-(4-((R)-1-ethoxy-2,2,2-trifluoroethyl)-3-((4-fluorophenyl)amino)phenyl)pentanoic acid], the IC50 under setting [1] was less than 50 nM.

Consider `CCO[C@H](c1ccc([C@H](COC)CC(=O)O)cc1Nc1cnc(C)nc1)C(F)(F)F` (single isomer, unassigned) [Example 59], for which the IC50 under setting [1] was 250 to 2000 nM.

For `CC[C@@H](CC(=O)O)c1ccc([C@@H](OC)C(F)(F)F)c(Nc2ccc(Cl)cc2)c1` (single isomer, unassigned) [Example 83-1], the IC50 under setting [1] was less than 50 nM.

Turning to `CCOc1ncc(Nc2cc([C@@H](CC)CC(=O)O)ccc2[C@H](CC)N2CCOCC2)cn1` (single isomer, unassigned) [Example 118-3], the concentration for half-maximal inhibition (IC50) under setting [1] is less than 50 nM.

On to `CC[C@H](c1ccc([C@@H](COC)CC(=O)O)cc1Nc1ccc(F)cc1)N1CCOCC1` (single isomer, unassigned) [Example 111], for which the IC50 under setting [1] is 250 to 2000 nM.

Regarding `CCOc1ncc(Nc2cc([C@@H](CC)CC(=O)O)ccc2[C@H](CC)N2CCOCC2)cn1` (single isomer, unassigned) [Example 118-2], the IC50 (read-out: IDO Hela IC50) stood at 430 nM.

On to `CCOc1ncc(Nc2cc([C@H](CC)CC(=O)O)ccc2[C@@H](OCC)C(F)(F)F)cn1` (single isomer, unassigned) [Example 12], for which the IC50 (read-out: IDO Hela IC50) turned out to be 20 nM.

Consider `CC[C@H](c1ccc([C@@H](COC)CC(=O)O)cc1Nc1ccc(C#N)cc1)N1CCOCC1` (single isomer, unassigned) [Example 101-2], for which the half-inhibitory concentration (IC50) under setting [1] lay within 250 to 2000 nM.

Consider `CC[C@H](c1ccc([C@@H](COC)CC(=O)O)cc1Nc1ccc(COC)nc1)N1CCOCC1` (relative stereo) [Example 109, (S)-4-methoxy-3-(3-((6-(methoxymethyl)pyridin-3-yl)amino)-4-((R)-1-morpholinopropyl)phenyl)butanoic acid], for which, under setting [1], the IC50 lay within 250 to 2000 nM.

For `CCO[C@@H](c1ccc([C@H](CC)CC(=O)O)cc1Nc1cnc(COC)nc1)C(F)(F)F` (single isomer, unassigned) [Example 38], the half-maximal inhibitory concentration (IC50) (read-out: IDO Hela IC50) worked out at 610 nM.

As for `CCO[C@H](c1ccc([C@@H](CC)CC(=O)O)cc1Nc1ccc(C#N)cc1)C(F)(F)F` (single isomer, unassigned) [Example 26], under setting [1], the IC50 was less than 50 nM.

For `CCO[C@H](c1ccc([C@@H](CC)CC(=O)O)cc1Nc1cnc(OC)nc1)C(F)(F)F` (single isomer, unassigned) [Example 22], the IC50 (read-out: IDO Hela IC50) came to 10 nM.

Regarding `CCO[C@@H](c1ccc([C@H](COC)CC(=O)O)cc1Nc1ccc(C#N)c(F)c1)C(F)(F)F` (relative stereo) [Example 70, (R)-3-(3-((4-cyano-3-fluorophenyl)amino)-4-((S)-1-ethoxy-2,2,2-trifluoroethyl)phenyl)-4-methoxybutanoic acid], for the setting “read-out: IDO Hela IC50”, the half-inhibitory concentration (IC50) turned out to be 30 nM.

Turning to `CCO[C@H](c1ccc([C@@H](COC)CC(=O)O)cc1Nc1cnc(OC)nc1)C(F)(F)F` (single isomer, unassigned) [Example 62], where the note is “read-out: IDO Hela IC50”, the IC50 came to 40 nM.

For the molecule `CCc1ncc(Nc2cc([C@H](CC)CC(=O)O)ccc2[C@H](CC)C2CCOCC2)cn1` (single isomer, unassigned) [Example 128], the half-maximal inhibitory concentration (IC50) (read-out: IDO Hela IC50) came out at 120 nM.

As to `CC[C@@H](CC(=O)O)c1ccc([C@H](OC)C(F)(F)F)c(Nc2cnc(C(F)(F)F)nc2)c1` (single isomer, unassigned) [Example 100], for the setting “read-out: IDO Hela IC50”, the IC50 was found to be 10 nM.

On to `CC[C@@H](CC(=O)O)c1ccc([C@@H](OC)C(F)(F)F)c(Nc2cnc(C)nc2)c1` (single isomer, unassigned) [Example 86], for which the IC50 (read-out: IDO Hela IC50) stood at 450 nM.

For the molecule `CC[C@H](CC(=O)O)c1ccc([C@@H](CC)C2CCOCC2)c(Nc2ccc(COC)nc2)c1` (single isomer, unassigned) [Example 127], under setting [1], the IC50 is less than 50 nM.

Turning to `CC[C@H](CC(=O)O)c1ccc([C@H](OC)C(F)(F)F)c(Nc2ccc(C#N)cc2)c1` (single isomer, unassigned) [Example 93], the concentration for half-maximal inhibition (IC50) under setting [1] was less than 50 nM.

`CC[C@H](CC(=O)O)c1ccc([C@@H](OC)C(F)(F)F)c(Nc2ccc(C#N)cc2)c1` (relative stereo) [Example 89, (R)-3-(3-((4-cyanophenyl)amino)-4-((R)-2,2,2-trifluoro-1-methoxyethyl)phenyl)pentanoic acid]: the IC50 under setting [1] was less than 50 nM.

`CCO[C@@H](c1ccc([C@H](COC)CC(=O)O)cc1NC(=O)Nc1ccc(Cl)cc1F)C(F)(F)F` (single isomer, unassigned) [Example 68]: the concentration for half-maximal inhibition (IC50) (read-out: IDO Hela IC50) amounted to 240 nM.

As to `CCO[C@@H](c1ccc([C@H](COC)CC(=O)O)cc1Nc1cnc(C)nc1)C(F)(F)F` (single isomer, unassigned) [Example 74], the half-maximal inhibitory concentration (IC50) under setting [1] fell in the range of 250 to 2000 nM.

Take `CCOc1ncc(Nc2cc([C@@H](COC)CC(=O)O)ccc2[C@@H](CC)N2CCOCC2)cn1` (single isomer, unassigned) [Example 108]: the IC50 under setting [1] lay in the range of 250 to 2000 nM.

Regarding `CCO[C@H](c1ccc([C@H](CC)CC(=O)O)cc1Nc1cnc(C)nc1)C(F)(F)F` (relative stereo) [Example 17, (R)-3-(4-((R)-1-ethoxy-2,2,2-trifluoroethyl)-3-((2-methylpyrimidin-5-yl)amino)phenyl)pentanoic acid], the IC50 (read-out: IDO Hela IC50) was found to be 130 nM.

As to `CCO[C@H](c1ccc([C@H](CC)CC(=O)O)cc1NC(=O)Nc1ccc(Cl)cc1F)C(F)(F)F` (single isomer, unassigned) [Example 9], the 50% inhibitory concentration (IC50) (read-out: IDO Hela IC50) is 10 nM.

On to `CC[C@@H](CC(=O)O)c1ccc([C@H](OC)C(F)(F)F)c(Nc2ccc(C#N)cc2)c1` (single isomer, unassigned) [Example 97], for which the IC50 under setting [1] is less than 50 nM.

Regarding `CCOc1ncc(Nc2cc([C@@H](CC)CC(=O)O)ccc2[C@H](CC)N2CCOCC2)cn1` (single isomer, unassigned) [Example 118-1], the half-maximal inhibitory concentration (IC50) (read-out: IDO Hela IC50) amounted to 750 nM.

For the molecule `CCO[C@@H](c1ccc([C@H](CC)CC(=O)O)cc1Nc1cnc(OC)nc1)C(F)(F)F` (single isomer, unassigned) [Example 33], the 50% inhibitory concentration (IC50) (read-out: IDO Hela IC50) turned out to be 30 nM.

For the molecule `CC[C@@H](CC(=O)O)c1ccc([C@H](OC)C(F)(F)F)c(Nc2cnc(C)nc2)c1` (single isomer, unassigned) [Example 98], where the note is “read-out: IDO Hela IC50”, the half-inhibitory concentration (IC50) came out at 150 nM.

For the molecule `CCO[C@@H](c1ccc([C@@H](CC)CC(=O)O)cc1Nc1cnc(COC)nc1)C(F)(F)F` (single isomer, unassigned) [Example 49], the half-inhibitory concentration (IC50) (read-out: IDO Hela IC50) stood at 440 nM.

For the molecule `CCO[C@@H](c1ccc([C@@H](CC)CC(=O)O)cc1Nc1ccc(F)cc1)C(F)(F)F` (single isomer, unassigned) [Example 51], the IC50 runs as follows: (read-out: IDO Hela IC50) 20 nM; under setting [1], less than 50 nM.

`CC[C@H](CC(=O)O)c1ccc([C@@H](CC)N2CCOCC2)c(Nc2ccc(C#N)cc2)c1` (relative stereo) [Example 122, (R)-3-(3-((4-cyanophenyl)amino)-4-((R)-1-morpholinopropyl)phenyl)pentanoic acid]: under setting [1], the IC50 is less than 50 nM.

For `CCc1ncc(Nc2cc([C@@H](COC)CC(=O)O)ccc2[C@@H](CC)N2CCOCC2)cn1` (relative stereo) [Example 107, (S)-3-(3-((2-ethylpyrimidin-5-yl)amino)-4-((R)-1-morpholinopropyl)phenyl)-4-methoxybutanoic acid], the concentration for half-maximal inhibition (IC50) under setting [1] was in the range of 250 to 2000 nM.

For `CC[C@@H](CC(=O)O)c1ccc([C@@H](OC)C(F)(F)F)c(Nc2cnc(C(F)(F)F)nc2)c1` (single isomer, unassigned) [Example 88], the half-maximal inhibitory concentration (IC50) (read-out: IDO Hela IC50) came out at 10 nM.

Consider `CCO[C@@H](c1ccc([C@@H](COC)CC(=O)O)cc1Nc1ccc(C#N)c(F)c1)C(F)(F)F` (single isomer, unassigned) [Example 77], for which the IC50 (read-out: IDO Hela IC50) came to 30 nM.

Turning to `CCc1ncc(Nc2cc([C@H](CC)CC(=O)O)ccc2[C@@H](CC)C2CCOCC2)cn1` (single isomer, unassigned) [Example 126-1], the IC50 under setting [1] is less than 50 nM.

Regarding `CCO[C@@H](c1ccc([C@H](CC)CC(=O)O)cc1Nc1cnc(C)nc1)C(F)(F)F` (single isomer, unassigned) [Example 39], the IC50 (read-out: IDO Hela IC50) turned out to be 100 nM.
